Source: patent publication US6127337A, “Bivalent thrombin inhibitors” (National Research Council of Canada, priority 1993, dated 2000)
Where “and” joins values, the source holds several entries; their conditions need not be identical. Equal entries are not always repeated. Where two headings read alike, the source gives them in different places.

Columns and labels:
human thrombin [1] = target: T1, human thrombin (Homo sapiens, UniProt P00734); test: Inhibition of amidolytic activity of human thrombin (fluorogenic, Tos-Gly-Pro-Arg-AMC), Ki; type: biochemical
T1 construct: Human α-thrombin (3,000 NIH units/mg); purchased Sigma
Procedure: Materials. The chromogenic and fluorogenic substrates Tosyl-Gly-Pro-Arg-pNAand Tos-Gly-Pro-Arg-AMC were purchased from Boehringer Manheim and Sigma, respectively. […] Initial velocities were recorded at several inhibitor concentrations and kinetic parameters were determined by fitting the data to a general equation describing enzyme inhibition (Segel, 1975). The data were analyzed using the non-linear regression program RNLIN in the IMSL library (IMSL, 1987) on a microVAX™ 3500 computer. […] Fluorogenic assays were conducted using the same conditions and instrument as above operating in the fluorescence mode in the ratio (λex =383 nm, λem =455 nm) Fluorescence intensities were calibrated with 7-amino-4-methyl coumarin solution of known concentration
Determination of Thrombin Inhibitory Dissociation Constants KI
The steady-state velocity was then measured for a few minutes. The compounds of this invention were also pre-incubated with thrombin for 20 min at room temperature before adding the substrate. […] The kinetic data (the steady-state velocity at various concentrations of the substrate and the inhibitors) of the competitive inhibition was analyzed using the methods described by Segel (1975). A non-linear regression program, RNLIN in the IMSL library (IMSL, 1987), LMDER in MINPACK library (More et al., 1980) or Microsoft™ Excell™, was used to estimate the kinetic parameters (Km Vmax and Ki). The biological data are reported on tables I-V.

human thrombin [2] = target: T1, human thrombin; test: Fibrin clotting assay; type: biochemical
Text: Abbreviations. The following abbreviations have been used in the specification: Abu, γ-aminobutyric acid; Ac, acetyl; Aca, ε-aminocaproic acid; Aca*, 8-aminocapylic acid; Acha, 1-aminocyclohexane-carboxylic acid; Ada, 12-aminododecanoic acid; AMC, 7-amino-4-methylcoumarin; Aua, 11-aminoundecanoic acid; Ava, δ-aminovaleric acid; Bal, β-alanine; Boc, tert-butyloxycarbonyl; BrBzs, 4-bromobenzenesulfonyl; Bzs, benzene sulfonyl; Cha, β-cyclohexylalanine; Fmoc, 9-fluorenylmethoxycarbonyl;FRE, fibrinogen recognition exo site; HPLC, high performance liquid chromatography; MD805, (2R,4R)-4-methyl-1-[N^α -(3-methyl-1,2,3,4-tetrahydro-8-quinolinesulphonyl-glycyl)-L-arginyl]-2-piperidine carboxylic acid; NAPAP, N^α (2-naphtyl-sulphonyl)-D,L-p-amidinophenylalanyl-piperidide; Nas, naphtylsulfonyl; Nle, norleucine; 3-TAPAP, N^α -(4-toluene-sulphonyl)-D,L-p-amidinophenylalanyl-piperidide; OBzl, benzylester; Pip, pipecolic acid; PPACK, D-Phe-Pro-Arg chloromethylketone; tBbs, 4-tert-butylbenzenesulfonyl; Tic, 1,2,3,4-tetrahydroisoquinoline-3-carboxylic acid; TipBs, 2,4,6 triisopropylbenzenesulfonyl; TFA, trifluoroacetic acid; Tos, tosyl; Tris, 2-amino-2-(hydroxymethyl)-1,3-propanediol. All amino acid residues are L-configuration unless otherwise indicated. IC50 is defined as the inhibitor concentration required to double the clotting time relative to the control; means of three determinants ±SEM.
The fibrin clotting assay was performed in 50 mM Tris HCl buffer (pH 7.52 at 37° C.) containing 0.1 M NaCl and 0.1% poly(ethylene glycol) 8000 with 9.0×10^-10 M (0.1 NIH unit/mL) and 0.03% (w/v) of the final concentrations of human thrombin and bovine fibrinogen, respectively, as reported elsewhere (Szewczuk et al., 1992). The clotting time was plotted against the inhibitor concentrations and the IC50 was estimated as the inhibitor concentration required to double the clotting time relative to the control.

[3] = given intravenously or subcutaneously, depending on the species; cited from earlier work
[4] = test system: carotid injury-induced thrombosis; test: FeCl3 induced arterial injury model (carotid injury-induced thrombosis); type: in vivo; settings: rat; for Dose to double occlusion time: control occlusion time 19 ± 1 min; for Dose to achieve patency at 60 min.: patency defined by no drop in vessel temperature
Procedure: […]: Rat, male, Sprague-Dawley. Weight: 375-450 g The FeCl3 induced arterial injury model assays were conducted according to Kurz, K. D., Main, […]., Thrombosis research 60; 269-280, 1990 and Schumacher, W. A. et al. J. pharmacology and experimental therapeutics 267; 1237-1242, 1993. Male, Sprague-Dawley (375-450 g) are anesthetized with Urethane (1500 mg/kg IP). Animals are laid on a heating pad which is maintained at 37° C. The carotid artery is approached through a midline cervical incision. Carefully blunt dissection is used to expose and isolate the vessel from the carotid sheath. Using forceps, the artery is lifted to provide clearance to insert two small polyethylene tubing (PE-205) underneath it. The temperature probe (Physitemp MT23/3 )TM is placed between the PE-205 and the artery. The vessel temperature is monitored for 60 minutes after application of FeCl3. Vessel temperature changes are recorded on a thermister (Cole-Palmer Model 08533-41). Injury is induced by application of a small disc (3 mm dia.) of WhatmanTM No.1 filter paper previously dipped in a 35% solution of FeCl3 on the carotid artery above the temperature probe. The site of the experiment is covered with in Aluminum foil in order to protect the FeCl3 from degradation by light. […] Before the start of the experiment, one blood sample is drawn (1 ml) in a tube of 0.105M buffered citrate solution (from the eye's sinus) and the animal is exsanguinated at the end. All the samples are kept on ice and centrifuged as soon as possible at 2000 Rpm for 10 min., 4° C. The plasma is analyzed in duplicate for activated partial thromboplastin time on a haemostasis analyzer (STAGO ST4TM). From a group of four animals, two arteries are stored at -80C for further analysis.

[5] = Table I, active site directed inhibitors, human thrombin 6.0×10^-11 M, substrate 1-8×10^-5 M, read-out: Ki
[6] = Table I, inhibitor concentration required to double the clotting time, means of three ±SEM, read-out: IC50
[7] = Table V, concentration to double the clotting time, read-out: IC50 (dtt)

Substance | Ki (human thrombin [1]; [5]) [nM] | IC50 (human thrombin [2]; [6]) [nM] | Ki (human thrombin [1]; Table V, read-out: Ki) [nM] | Dose to double occlusion time [4] [mg/kg i.v. bolus] | Dose to achieve patency at 60 min. [4] [mg/kg i.v. bolus] | IC50 (human thrombin [2]; [7]) [nM] | also measured
Dansyl-Arg-(L-Pip)-Abu-NH2 [Peptide P430] | 11600 ± 3300 | 39100 ± 7200 |  |  |  |  | 
Dansyl-Arg-(D-Pipecolic acid)-NH2 [Peptide P429] | 158 ± 57 | 430 ± 130 |  |  |  |  | 
Dansyl-Arg-(L-Pip)-NH2 [Peptide P428] | 19100 ± 1300 | 37900 ± 1900 |  |  |  |  | 
Hirudin |  |  |  |  |  |  | half-life [3]: 30 to 60 min
tert-butylbezenesulfonyl-Arg (D-Pipecolic acid)-(12-aminododecanoic acid)-4-aminobutyric acid)-Asp-Phe-Glu-Pro-Ile-Pro-Tyr-OH [BCH-2443] |  |  | 1 | > 4 | > 4 | 12 | 
Dansyl-Arg-(D-Tic)-NH2 [Peptide P396] | 390 ± 20 | 820 ± 150 |  |  |  |  | 
tert-butylbezenesulfonyl-Arg (D-Pipecolic acid)-(12-aminododecanoic acid)-4-aminobutyric acid)-Asp-Phe-Glu-Pro-Ile-Pro-Tyr-OH [BCH-2736] |  |  | 270 | 4 | > 4 | 1100 | 
2,4,6 triisopropylbenzensulfonyl-Arg (D-Pipecolic acid)-(12-aminododecanoicacid)-4-aminobutyric acid)-Asp-Phe-Glu-Pro-Ile-Pro-Tyr-OH [BCH-2444] |  |  | 5.5 |  |  | 55 | 
Dansyl-Arg-(D-Pipecolic acid)-Abu-NH2 [Peptide P431] | 980 ± 130 | 2580 ± 680 |  |  |  |  | 
4-bromobenzenesulfonyl-Arg (D-Pipecolic acid)-(12-aminododecanoic acid)-4-aminobutyric acid)- Asp-Phe-Glu-Pro-Ile-Pro-Tyr-OH [BCH-2733] |  |  | 0.8 | > 2 | > 2 | 4.1 | Ki (human thrombin [1]; read-out: Ki value): < 1 nM and 0.8 nM
